Data taken from patent US20170313664A1, “NOVEL FORM OF PYRIMIDINE COMPOUND HAVING DIBENZYLAMINE STRUCTURE” (KOWA COMPANY, LTD., priority 2013, published 2017).

Test: Heat stability test (remaining percentage by HPLC peak area after preservation in a glass bottle)
Format: physicochemical
Conditions: for Remaining percentage (%) of pyrimidine compound (1): HPLC area percentage, 242 nm
Protocol: A test compound was placed in a glass bottle, and it was then preserved for a predetermined period of time under temperature conditions of 80° C., 100° C., or 120° C. Thereafter, the remaining percentage (%) of the pyrimidine compound (1) in the test compound was measured.
The remaining percentage was obtained by measuring the rate of the pyrimidine compound (1) contained in the test compound according to high performance liquid chromatography and expressing the measured value as a peak area percentage. In the measurement according to high performance liquid chromatography, an ODS column was used as a column, and a mixture of two solvents, namely, a 0.1% TFA aqueous solution and a 0.1% TFA acetonitrile solution, was used as a solvent. The detection wavelength was set at 242 nm.
From the obtained area percentage of the pyrimidine compound (1), the remaining percentage was calculated according to the following calculation formula.
Remaining percentage (%)=Area percentage of pyrimidine compound (1) after preservation/area percentage of pyrimidine compound (1) before preservation×100
As test compounds, the crystal obtained in Example 1-3 (a crystal of the pyrimidine compound (1) hydrochloride) and a free form of the pyrimidine compound (1) were used.

[1] = After preservation at 80° C. for 72 hours
[2] = After preservation at 100° C. for 24 hours
[3] = After preservation at 120° C. for 16 hours

| SMILES | Remaining percentage (%) of pyrimidine compound (1) [1] | Remaining percentage (%) of pyrimidine compound (1) [2] | Remaining percentage (%) of pyrimidine compound (1) [3] | Heat stability (overall assessment) (conclusion from the test results of Table 8 (80-120° C.)) |
| --- | --- | --- | --- | --- |
| CCN(C[C@H]1CC[C@H](CC(=O)O)CC1)c1ccc(C(F)(F)F)cc1CN(c1ncc(OCCS(C)(=O)=O)cn1)[C@@H](C)c1cc(C(F)(F)F)cc(C(F)(F)F)c1.Cl [(S)-trans-{4-[({2-[({1-[3,5-bis(trifluoromethyl)phenyl]ethyl}{5-[2-(methylsulfonyl)ethoxy]pyrimidin-2-yl}amino)methyl]-4-(trifluoromethyl)phenyl}(ethyl)amino)methyl]cyclohexyl}acetic acid monohydrochloride] | 100.0% | 100.0% | 99.5% | excellent heat stability |
| CCN(C[C@H]1CC[C@H](CC(=O)O)CC1)c1ccc(C(F)(F)F)cc1CN(c1ncc(OCCS(C)(=O)=O)cn1)[C@@H](C)c1cc(C(F)(F)F)cc(C(F)(F)F)c1 [Free form of pyrimidine compound (1), (S)-trans-{4-[({2-[({1-[3,5-bis(trifluoromethyl)phenyl]ethyl}{5-[2-(methylsulfonyl)ethoxy]pyrimidin-2-yl}amino)methyl]-4-(trifluoromethyl)phenyl}(ethyl)amino)methyl]cyclohexyl}acetic acid] | 99.5% | 89.3% | 71.5% | – |
